The record followed here is article PMC12301034, “Design and Synthesis of Boronic Chalcones with Dual Anticancer and Anti-Inflammatory Activity” (Molecules, 2025).

In data set [1] the test system is SCC-25 cells. As to the kind of experiment: Annexin V-FITC/PI apoptosis/necrosis assay. The format is cell-based, human. The note with it: SCC-25, 44.3 μM, 24 h. As for the experimental part: For the assessment of the type of cell death, the treatment groups were 44.3 μM, 22.1 μM, and 9.45 μM compound 5, and the negative control without any treatment (only DMEM medium). Then, after 24 h of treatment, cell suspensions of 1 × 10^6 mL^–^1 (SCC-25) of each experimental condition were labeled, and the assay was performed according to the manufacturer’s protocol with the FITC Annexin V/Dead Cell Apoptosis Kit (Life Technologies, Eugene, OR, USA). Annexin V-FITC conjugated (510 nm) and propidium iodide (PI, 610 nm) fluorescence intensity were detected by automatic reading with the Countess™ II FL Automated Cell Counter (Life Technologies, Carlsbad, CA, USA). The cell population was calculated as a percentage of apoptotic cells labeled only with annexin V-FITC conjugated (green), necrotic cells labeled only as PI (red), and late apoptotic/necrotic cells (green and red).

Data set [2] has as its system SCC-25 cells. As to the kind of experiment: MTT cytotoxicity assay on SCC-25 cells. The format is cell-based, human. Particulars: Homo sapiens, SCC-25; MTT, 24 h incubation, mean SEM of three experiments. An excerpt:
(§1) The SCC-25 (ATCC® CRL-1628™), Detroit-562 (ATCC® CCL-138™), and THP-1 (ATCC® TIB-202™) cells were purchased from Rio de Janeiro Cell Bank (Duque de Caxias, Brazil), and NOK-si was kindly provided by Prof. Carlos Rossa from the School of Dentistry—UNESP. All the cells were cultivated according to standard conditions. Human colorectal adenocarcinoma HCT116 cell lines (ATCC® CCL-247™) expressing p53 and its p53-null isogenic derivative (HCT116 p53^−/−) were provided by B. Vogelstein (The Johns Hopkins Kimmel Cancer Center, Baltimore, MD, USA).
(§2) Cells (NOK-si, SCC-25, and Detroit-562) were grown in a DMEM medium (Dulbecco’s Modified Eagle Medium), supplemented according to the needs of each lineage, as recommended by its cell banks, with 2 mM L-glutamine, 10% or 20% fetal bovine serum (FBS), 1% antibiotic–antimycotic solution (5 mg/mL penicillin, 5 mg/mL streptomycin, and 10 mg/mL neomycin), 4.5 g/L of glucose, and 3.7 g/L of sodium bicarbonate (NaHCO3). All cell lines were cultured in flasks at 37 °C in 5% carbon dioxide (CO2) and 95% of relative humidity. The assays were conducted between the third- and the seventh-cell passage, with sub-cultures every 3–4 days to maintain exponential growth. The cell viability was checked using the trypan blue dye exclusion assay for all experiments, where over 95% of the cells were viable at the beginning of the tests. NOK-si, SCC-25, and Detroit-562 were initially thawed and cultured in 25 cm^2 cell culture flasks. Cell growth was monitored using a microscope, and the culture medium was changed periodically. Upon reaching confluency, cell dissociation was achieved by adding 5 mL of trypsin (Sigma-Aldrich, St Louis, MO, USA) and incubating the bottles in a CO2 incubator for 10 min. Subsequently, the cells were transferred to 15 mL Falcon tubes and centrifuged at 2000 rpm for 10 min. Cell counting was performed using a Countess II FL automated cell counter (ThermoFischer, Waltham, MA, USA). The cells were seeded at a density of 30,000 cells per well in 96-well plates. The plates were then incubated at 37 °C in 5% CO2 for 24 h. Following this, test compounds were incubated for another 24 h at 10 different concentrations: 50, 25, 12.5, 6.25, 3.12, 1.56, 0.78, 0.39, 0.19, and 0.097 µg/mL. After the specified time, MTT reagent (3 mg/mL) (Sigma-Aldrich, St Louis, MO, USA) dissolved in phenol-free RPMI 1640 was added and incubated for 4 h. The formed MTT crystals were solubilized using 2-propanol P.A. (Sigma-Aldrich, St Louis, MO, USA) with agitation. Absorbance was read at 562 nm using an EZ Read 400 microplate reader (Biochrom, Cambridge, UK) and ADAP 2.0 Biochrom software (version 2.0). IC50 values and graphs were calculated using Excel and Prism software (version 10.4.1). The MTT assay results were evaluated for normality using the Shapiro–Wilk test, followed by one-way ANOVA with Tukey’s post hoc test at a significance level of 5%.
Background: Formazan colour is commonly taken as a measure of viable cells.

A short description of data set [3]: Distribution coefficient (eLogD) by HPLC retention time. It counts as physicochemical. Particulars: Supelco Ascentis Express RP Amide column, pH 7.4, read-out: LogD7.4. As for the experimental part: The determination of the experimental distribution coefficient (eLogD) was based on the retention time of molecules in the stationary phase using high-performance liquid chromatography (HPLC). Chromatographic analysis was performed on a Supelco Ascentis Express RP Amide HPLC column (5 cm × 2.1 mm, 2.7 μm), with a binary gradient mobile phase consisting of (A) 5% methanol in 10 mM ammonium acetate pH 7.4 and (B) 100% methanol. The mobile phase was eluted as follows: 0 min, 95% A; 0.3 min, 100% A; 5.2 min, 0% A; 5.6 min, 0% A; 5.8 min, 100% A; 7.0 min, 100% A. The total run time was 7 min, with a sample injection volume of 5 μL. Test compounds were prepared by diluting stock solutions (1.0 mg/mL in DMSO) in a mixture of mobile phases A:B (1:1 v/v) containing an internal standard (200 nM), achieving a final concentration of 1.0 μg/mL (final DMSO concentration ≤ 1%). The prepared solutions were transferred to a 96-well plate in duplicate, which was then sealed and introduced into the autosampler for analysis. […]. These reference and control compounds were injected at the beginning and end of the experimental procedure. A calibration graph was obtained by plotting the retention times of the reference compounds against their respective LogD values. The resulting equation (y = mx + b) was used to calculate the eLogD7.4 values for the test compounds and controls. […]

A further data set relates to NOK-si cells. Nature of the data set: MTT cytotoxicity assay on NOK-si normal oral keratinocytes. It counts as cell-based. The note with it: 24 h incubation.
Excerpt: as §1, §2

Each structure is given as a SMILES string. Entries after “also recorded” stand apart in the source; their conditions may differ. Where only a bound is given, the exact number is not on record here.

As to `COc1cccc(C(=O)/C=C/c2cccc(B(O)O)c2)c1` [Compound 5, (E)-(3-(3-(3-methoxyphenyl)-3-oxoprop-1-en-1-yl)phenyl)boronic acid], the viability at 44.3 µM in the data set with SCC-25 cells [1] (Homo sapiens, read-out: proportion of viable cells) was below 5%. The “type of cell death” value in the data set with SCC-25 cells [1] (22.1 μM and 9.45 μM) is recorded as “necrosis; also recorded: predominantly induces necrotic cell death”. For the same molecule, in the data set on SCC-25 cells [2], 17.9 ± 0.35 µM corresponded to half-maximal inhibition (IC50). Besides, in data set [3], the chromatographic logD was determined as 3.92. Also, in the data set with NOK-si cells, the “NOK-si IC50” value was determined as 58.9 ± 10.63 µM. Moreover, the CC50 with NOK-si cells (Keratinocyte, read-out: NOK-si IC50) stood at 58.9 µM.
